Source: ChEMBL document CHEMBL1142617, “Mycalamides C and D, cytotoxic compounds from the marine sponge Stylinos n. species” (J Nat Prod, 2000)
≈ marks a conversion by molar mass, not a printed value.

System: P388
Assay: Cytotoxicity against mouse P388 cells
Type: functional, cell-based

| SMILES | IC50 [µg/mL] |
| --- | --- |
| C=C1C[C@](OC)([C@H](O)C(=O)N[C@H]2OCO[C@H]3[C@@H]2O[C@H](C[C@H](O)CO)C(C)(C)[C@@H]3O)O[C@H](C)[C@@H]1C [MYCALAMIDE D] | 0.035 (≈ 0.0715 µM) |
| C=C1C[C@](OC)([C@H](O)C(=O)N[C@H]2OCO[C@H]3[C@@H]2O[C@H](C[C@H](O)CO)C(C)(C)[C@@H]3OC)O[C@H](C)[C@@H]1C [MYCALAMIDE A] | 0.0011 (≈ 0.00218 µM) |
| C=C1C[C@](OC)([C@H](O)C(=O)NC[C@H]2O[C@H](CO)C(C)(C)[C@H](O)[C@H]2O)O[C@H](C)[C@@H]1C [MYCALAMIDE C] | 0.095 (≈ 0.228 µM) |
| C=C1C[C@](OC)([C@H](O)C(=O)N[C@@H]2OCO[C@H]3[C@@H]2O[C@H](CO)C(C)(C)[C@@H]3OC)O[C@H](C)[C@@H]1C [THEOPEDERIN E] | 0.0009 (≈ 0.00196 µM) |
